2 compounds from patent US20260083698A1, “Synergistic Stimulation of Mucociliary Clearance to Treat Mucus Obstruction in Cystic Fibrosis and Other Muco-Obstructive Disorders” (The Board of Trustees of the Leland Stanford Junior …, priority 2022, published 2026) can be followed below.

One assay concerns WT piglet tracheas. The experiment in a line: Mucociliary clearance velocity (MCCV) in ex vivo WT piglet tracheas. Further details: species or system pig. The note with it: for Averaged MCCV: 10 μM forskolin, 0.3 μM carbachol, last 20 min of single agonist period, last 50 min of synergy period. On the procedure:
MCCV in tracheas was measured from 2 to 5 days old WT piglets (see “Methods” section for details). […] The 8 piglet tracheas were divided into two groups and tested 4 by applying forskolin first and 4 by applying carbachol first, followed by the combined agonists.
These experiments used forskolin to elevate cAMP.
Pig tissues. Newborn WT piglet tracheas (2-5 days old) were directly obtained at the swine facility of UC Davis or from the laboratory of David Stoltz, University of Iowa, via overnight priority express. Postmortem (<1 h) tracheas from young adult Yorkshire pigs (30-50 kg) and 5-12 months old M. putorius ferrets were from animal facilities at Stanford and Gilroy/CA. All methods using animal tracheae were carried out in accordance with relevant guidelines and regulations of Stanford University and animal protocols were approved (Stanford IACUC protocol#: 10,048). Piglet tracheas were shipped in DMEM cell culture medium, other animal tissues were transported to the laboratory in cold PhysioSol™ solution (Hospira, IL/USA) and then transferred to icecold Krebs Ringer bicarbonate (KRB) buffer gassed with 95% O2 and 5% CO2 and kept at 4° C. until use. The KRB buffer contained (in mM): 115 NaCl, 25 NaHCO3, 2.4 K2HPO4, 0.4 KH2PO4, 1.2 MgCl2, 1.2 CaCl2, 10 glucose, and 1.0 μM indomethacin, adjusted to pH 7.2 and ˜290 mOsm at room temperature.
MCCV measurement. Details are in the previous reports (16,59,60). Briefly, each whole length ferret or piglet trachea, or a CF tracheal trim, was cut open along the mid-dorsal line and mounted mucosal side up onto a Sylgard elastomer platform. […] The prepared trachea was placed into a sealed, humidified chamber bubbled continuously with gas (95%/5%-O2/CO2) with the serosal surface bathed with KRB buffer±drugs. […] Then excess apical solution was drained, and tissue was incubated for an additional 10 min before starting baseline measurements of MCCV. Drugs were added by bath replacement with pre-warmed bath+drug(s). Summary MCCV data are reported as a single number and based on the averaged MCCV during the last 20 min of the treatment period unless stated otherwise.
MCCV (all values are in mm/min) was then measured for 90-120 min and plotted as MCCV vs time and agonist(s) in FIG. 8.
It was hypothesized that the synergistic MCC induced by β-adrenergic and cholinergic agonists involved ENaC inhibition.

The subject of assay [1] is CF ferret (CFTRKO/KO) tracheal glands. As to the kind of experiment: Optical measurement of glandular mucus secretion rate, CF ferret. The conditions noted are these: 10 mM forskolin, 0.3 mM carbachol, one ferret per order of addition. An excerpt: Synergistic glandular mucus secretion in WT pigs, WT ferrets, and CF ferrets. Synergistic increases in MCCV rely partly on increased mucus secretion from submucosal glands. This hypothesis arises from evidence that combinations of [Ca^2+]i-elevating and [cAMP]i-elevating agonists produce synergistically elevated rates of mucus from submucosal glands of humans (22), pigs (24), and ferrets (21). However, in those experiments different specific concentrations of agonists were used. To determine if the same protocols used here produced synergistic increases in secretion from submucosal glands, mucus secretion rates of individual tracheal glands in WT pigs and ferrets and in CF ferrets were measured via time-lapse optical imaging (28) while stimulating them with the same concentrations of agonists and durations of exposure used for MCCV studies. All secretion rates are reported as nanoliters/min/gland. […] Only two CF ferrets were able to be tested (FIG. 3G-I). […] Unstimulated secretion rates were zero, as in WT ferrets. […] The averaged secretion rate across both ferrets to the combined agonists was 1.27±0.15,which is 2.8 times the arithmetic sum of the two agonists used alone, and about half of the response of WT ferrets of 2.46±0.39 (16). Airway tissue procurement. […] Stored images were analyzed by direct measurement or with ImageJ software (V. 1.50i, https://imagej.nih.gov/ij/, NIH, MD/USA).

In another assay the test system is human nasal mucosa. As to the kind of experiment: Ciliary beat frequency (CBF) measurement. The note with it: 37° C.; for CBF: human nasal mucosa, KRB, 0.3 μM carbachol, 10 μM forskolin. On the procedure:
Ciliary beat frequency was measured in human nasal mucosa from 4 subjects. CBF (in Hz) of unstimulated tissues at 37° C. in Krebs buffer (KRB) was 10.46±0.95. […] (Note that in this experiment any effects on ASL by the agonists were diluted because the ciliated tissue was studied while submerged in Krebs solution.) […] It was tested to see if CBF might display synergistic increases to the combined agonists. CBF (in Hz) of unstimulated human nasal cells in KRB (Krebs buffer solution) was 6.79±1.69 at 25° C. and 10.46±0.95 at 37° C. (4 subjects, P=0.01) (see “Methods” section). […] Thus, while increases in CBF will contribute to increases in MCCV, they are unlikely to account for the synergistic increase in MCCV seen with the combined agonists (see “Discussion” section). Human tissues. Human nasal mucosal tissues were obtained from nasal biopsies during endoscopic sinus surgeries at Yonsei University Hospital. All methods using human tissues were carried out in accordance with relevant guidelines and regulations of Yonsei University, Seoul, South Korea. All experimental protocols were approved by Yonsei University and informed consent was obtained from all participants prior to the study (Yonsei University-IRB protocol#: 4-2016-1153). Ciliary beat frequency measurement. Ciliary beat frequency was measured using human nasal mucosa in the lab where ferret and pig tracheal mucosa was not readily accessible. Human nasal mucosa from endoscopic nasal biopsies was further dissected under a microscope and placed in a chamber controlled for temperature and pH control. Perfused Krebs bicarbonate buffer was maintained at 37° C. and pH 7.4. Cilia were visualized with a Zeiss microscope equipped with 40× or 60× objectives (Munich, Germany) using differential interference contrast (DIC) optics. […] Images were obtained for 10 s at each condition and experiments were performed in the following sequence: (1) unstimulated CBF at room temperature; (2) unstimulated at 37° C.; (3) CBF at 37° C. with 0.3 μM carbachol; (4) wash for 10 min; […] Each condition was maintained for at least 10 min. […] All recordings at each condition were made at three different areas of the epithelia, and the analyzed CBF was averaged for each experiment. To analyze captured images and calculate CBF, an in-house coding with a MATLAB software (MA, USA) was used.

Each structure is given as a SMILES string.

For the compound `C[N+](C)(C)CCOC(N)=O` [carbachol], in the assay on WT piglet tracheas (WT piglet tracheas), the “Averaged MCCV” value is 1.12±0.82 mm/min. Also, the “effect on MCCV” value in the assay on WT piglet tracheas (WT piglet tracheas, carbachol or forskolin alone) was “only small increases”. Also, the MCCV in the assay with WT piglet tracheas (pig tracheas, 10 μM formoterol in place of forskolin, carbachol) came out at 1.3±0.8 mm/min. In assay [1], the “average gland mucus secretion rate, single ferret” value is reported as 0.45±0.16 nanoliters/min/gland. In the assay with human nasal mucosa, the “increase in CBF vs unstimulated” value was found to be 5.3% and the CBF turned out to be 11.04±1.3 Hz.

`C=C[C@@]1(C)CC(=O)[C@]2(O)[C@@]3(C)[C@@H](O)CCC(C)(C)[C@@H]3[C@H](O)[C@H](OC(C)=O)[C@@]2(C)O1` [forskolin]: the “Averaged MCCV” value in the assay on WT piglet tracheas (WT piglet tracheas) is listed as 2.46±0.68 mm/min. For the same compound, the “average gland mucus secretion rate, single ferret” value in assay [1] worked out at 0.01 nanoliters/min/gland. In addition, in the assay with human nasal mucosa, the “increase in CBF vs unstimulated” value is recorded as 9.8% and the CBF came out at 12.06±1.22 Hz.
